Experimental findings from patent US4920124A, “N-substituted 3,4-dihydropyrimidine compounds as agents for treating disorders of cardiovascular system” (Suntory Limited, priority 1987, dated 1990) are described below.

The subject of experiment [1] is vertebral artery. As to the kind of experiment: vascular resistance of the vertebral artery in anesthetized dogs (ED30). The class given is in vivo, dog. The conditions noted are these: Canis lupus familiaris, intravenous injection.
For experiment [2], the system named is vertebral artery. As to the kind of experiment: time course of changes in the vascular resistance of the vertebral artery in anesthetized dogs (T1/2). It is filed as in vivo, dog. To be noted: injected with the ED30 doses. On the procedure: Adult dogs of either sex (7~14 kg in body weight) were anesthetized with at first thiopental sodium (35 mg/kg, intraperitoneal), anesthetized with urethane (400 mg/kg, intravenous) and chloralose (60 mg/kg, intravenous) and kept under artificial respiration throughout the experiment. After thoracotomy at the left first intercostal space, the vertebral artery was exposed and blood flow was measured with intracorporeal flow probe connected to an electromagnetic flowmeter (MF-27, Nihon Kohden).
At the same time, continuous measurement of the following parameters was made: systemic blood pressure (mean pressure) at the right femoral artery, the limb lead II ECG, the heart rate with a tachometer triggered by the R wave of ECG, and the vascular resistance determined by loading a electronic divider unit (EO-601 G, Nihon Kohden) with the mean values of blood pressure and vertebral artery blood flow. All of these parameters were recorded simultaneously on a polygraph (RM-600, Nihon Kohden).
All the test compounds were injected through a cannula inserted into the femoral vein.
Selected compounds of the present invention were tested for their ability to reduce the resistance of the vertebral artery in anesthetized dogs.
The animals were injected with the ED30 doses of test compounds and the time course of changes in the vascular resistance were studied in the same manner as in Example 26. The time course of changes can be as shown schematically in FIG. 1. From the curve shown in FIG. 1, the values of T1/2 (min) (the time to reach 50% of the resistance drop) were calculated. The results are shown in Table 3, in which the compound numbers correspond to the Example numbers.

In the case of `CC1=NC(C)=C(C(=O)OC(C)C)C(c2ccccc2[N+](=O)[O-])N1C(=O)OCCN(Cc1ccccc1)Cc1ccc(Cl)c(Cl)c1` (centres unmarked) [Example 1, 3-[2-{N-benzyl-N-(3,4-dichlorobenzyl)amino}ethoxycarbonyl]-5-isopropoxycarbonyl-2,6-dimethyl-4-(2-nitrophenyl)-3,4-dihydropyrimidine], the ED30 in the experiment with vertebral artery [1] worked out at 2.1 µg/kg. Further, the “T1/2 (the time to reach 50% of the resistance drop)” value in the experiment with vertebral artery [2] is recorded as more than 25.0 min.

`COc1ccc(CN(CCOC(=O)N2C(C)=NC(C)=C(C(=O)OC(C)C)C2c2ccccc2[N+](=O)[O-])Cc2ccccc2)cc1` (centres unmarked) [Example 2] had an ED30 in the experiment on vertebral artery [1] of 1.8 µg/kg. Besides, the “T1/2 (the time to reach 50% of the resistance drop)” value with vertebral artery [2] came to 8.2 min. Regarding `CC1=NC(C)=C(C(=O)OC(C)C)C(c2ccccc2[N+](=O)[O-])N1C(=O)OCCN(Cc1ccccc1)Cc1ccc(F)cc1` (centres unmarked) [Example 3], the ED30 with vertebral artery [1] was 2.6 µg/kg. On the same count and under the same terms, with `CC1=NC(C)=C(C(=O)OC(C)C)C(c2ccccc2[N+](=O)[O-])N1C(=O)OCCN(Cc1ccccc1)Cc1ccc(Cl)cc1` (centres unmarked) [Example 4] the figure was 2.9 µg/kg; with `CC1=NC(C)=C(C(=O)OC(C)C)C(c2ccccc2[N+](=O)[O-])N1C(=O)OCCN(Cc1ccccc1)Cc1ccc(C)cc1` (centres unmarked) [Example 5], 2.8 µg/kg; with `CC1=NC(C)=C(C(=O)OC(C)C)C(c2ccccc2[N+](=O)[O-])N1C(=O)OCCN(Cc1ccc(F)cc1)Cc1ccc(F)cc1` (centres unmarked) [Example 6], 1.3 µg/kg.

Turning to `CC1=NC(C)=C(C(=O)OC(C)C)C(c2ccccc2[N+](=O)[O-])N1C(=O)OCCN(Cc1ccccc1)Cc1ccccc1F` (centres unmarked) [Example 9], in the experiment with vertebral artery [1], the ED30 turned out to be 2.3 µg/kg. On the same count and under the same terms, under `COc1cccc(CN(CCOC(=O)N2C(C)=NC(C)=C(C(=O)OC(C)C)C2c2ccccc2[N+](=O)[O-])Cc2ccccc2)c1` (centres unmarked) [Example 10] stands 1.8 µg/kg; under `CC1=NC(C)=C(C(=O)OC(C)C)C(c2ccccc2[N+](=O)[O-])N1C(=O)OCCN(Cc1ccccc1)Cc1cccc(F)c1` (centres unmarked) [Example 11], 2.1 µg/kg; under `CC1=NC(C)=C(C(=O)OC(C)C)C(c2ccccc2[N+](=O)[O-])N1C(=O)OCCN(Cc1ccccc1)Cc1ccccc1Cl` (centres unmarked) [Example 13], 4.7 µg/kg.

With `CC1=NC(C)=C(C(=O)OC(C)C)C(c2ccccc2[N+](=O)[O-])N1C(=O)OCCN(Cc1ccccc1)Cc1cccc(Cl)c1` (centres unmarked) [Example 14], the “T1/2 (the time to reach 50% of the resistance drop)” value in the experiment with vertebral artery [2] amounted to 10.6 min.

For the compound `CC1=NC(C)=C(C(=O)OC(C)C)C(c2ccccc2[N+](=O)[O-])N1C(=O)OCCN(Cc1ccccc1)Cc1ccc(Cl)cc1Cl` (centres unmarked) [Example 15], in the experiment with vertebral artery [2], the “T1/2 (the time to reach 50% of the resistance drop)” value is reported as more than 20.0 min.

Take `CC1=NC(C)=C(C(=O)OC(C)C)C(c2ccccc2[N+](=O)[O-])N1C(=O)OCCN(Cc1ccccc1)Cc1ccc(C(F)(F)F)cc1` (centres unmarked) [Example 16]: in the experiment with vertebral artery [2], the “T1/2 (the time to reach 50% of the resistance drop)” value stood at 7.9 min. Consider `CC1=NC(C)=C(C(=O)OC(C)C)C(c2ccccc2[N+](=O)[O-])N1C(=O)OCCN(Cc1ccc(Cl)cc1)Cc1ccc([N+](=O)[O-])cc1` (centres unmarked) [Example 20], for which, in the experiment on vertebral artery [2], the “T1/2 (the time to reach 50% of the resistance drop)” value is 10.2 min. Still for that read-out and setting: with `COc1ccc(CN(CCOC(=O)N2C(C)=NC(C)=C(C(=O)OC(C)C)C2c2ccccc2[N+](=O)[O-])Cc2ccc(Cl)c(Cl)c2)cc1` (centres unmarked) [Example 21] the figure was 20.0 min; with `CC1=NC(C)=C(C(=O)OC(C)C)C(c2ccccc2[N+](=O)[O-])N1C(=O)OCCN(Cc1ccc(Cl)cc1)Cc1cccc(Cl)c1` (centres unmarked) [Example 22], 19.5 min; with `CC1=NC(C)=C(C(=O)OC(C)C)C(c2cccc([N+](=O)[O-])c2)N1C(=O)OCCN(Cc1ccccc1)Cc1ccc(Cl)c(Cl)c1` (centres unmarked) [Example 24, 3-[2-{N-benzyl-N-(3,4-dichlorobenzyl)amino}ethoxycarbonyl]-5-isopropoxycarbonyl-2,6-dimethyl-4-(3-nitrophenyl)-3,4-dihydropyrimidine], 16.0 min. On the same count and under the same terms, under `CC1=NC(C)=C(C(=O)OC(C)C)C(c2ccccc2[N+](=O)[O-])N1C(=O)OCCN(Cc1ccccc1)Cc1c(Cl)cccc1Cl` (centres unmarked) [Example 25] stands 11.7 min.
